In brackets after ≈: the same amount, converted by molar mass. Like-named read-outs stand apart in the source and are kept apart here.
Assays:
[1] = system: Mycobacterium tuberculosis H37Rv; experiment: Microplate Alamar Blue Assay (MABA), antitubercular activity; type: cell-based
InhA reductase enzyme = InhA reductase enzyme (Mycobacterium tuberculosis, UniProt P9WGR1); experiment: In vitro InhA enzyme inhibition (NADH oxidation at 340 nm)
Vero cell line = experiment: Cytotoxicity test, MTT assay; type: cell-based, African green monkey; conditions: Chlorocebus sabaeus, 24 h, Vero cells, 24 h exposure, 0.1–200 µg/mL, read-out: Vero Cell Line IC50 ± SEM
[2] = Mycobacterium tuberculosis, H37RV, M. tuberculosis H37Rv, MABA, lowest concentration giving ≥90% reduction in fluorescence, read-out: MIC
[3] = M. tuberculosis H37Rv, MABA, lowest concentration giving ≥90% reduction in fluorescence

Sequence of InhA reductase enzyme (P9WGR1 whole entry, looked up): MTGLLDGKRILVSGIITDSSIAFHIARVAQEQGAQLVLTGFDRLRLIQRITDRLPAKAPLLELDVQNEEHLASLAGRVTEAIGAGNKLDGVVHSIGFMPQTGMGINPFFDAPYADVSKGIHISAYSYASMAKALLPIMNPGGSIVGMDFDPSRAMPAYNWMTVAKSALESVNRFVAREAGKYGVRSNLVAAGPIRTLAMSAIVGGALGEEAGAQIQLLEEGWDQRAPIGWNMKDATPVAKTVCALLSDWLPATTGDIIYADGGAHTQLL

O=C(N/N=C/c1ccccc1)c1ccc(Oc2ccccc2)cc1 [Compound 8a, (E)-N′-Benzylidene-4-phenoxybenzohydrazide]
MIC [1, 2]: 34.5 µg/mL (≈ 109 µM) | melting point: 163 to 165 °C | IC50 (InhA reductase enzyme): 73.2 µM

COc1ccc(-c2nnc(-c3ccc(Oc4ccccc4)cc3)o2)cc1 [Compound 6c, 2-(4-Methoxyphenyl)-5-(4-phenoxyphenyl)-1,3,4-oxadiazole]
MIC [1, 2]: 39 µg/mL (≈ 113 µM) | melting point: 226 to 228 °C | IC50 (InhA reductase enzyme): > 100 µM

c1ccc(Oc2ccc(-c3nnc(-c4cccc5ccccc45)o3)cc2)cc1 [Compound 6g, 2-(Naphthalen-1-yl)-5-(4-phenoxyphenyl)-1,3,4-oxadiazole]
MIC [1, 2]: 12.2 µg/mL (≈ 33.6 µM) | melting point: 173 to 175 °C | IC50 (InhA reductase enzyme): 33.8 µM

c1ccc(Oc2ccc(-c3nnc(-c4ccc(Oc5ccccc5)cc4)o3)cc2)cc1 [Compound 6l, 2,5-bis(4-Phenoxyphenyl)-1,3,4-oxadiazole]
MIC [1, 3]: 1.17 µg/mL (≈ 2.88 µM) | MIC [1, 2]: 0.61 to 1.69 µg/mL (≈ 1.5 to 4.16 µM) | melting point: 232 to 234 °C | IC50 (InhA reductase enzyme): 5.63 µM | IC50 (Vero cell line): > 60 µg/mL

O=C(N/N=C/c1cccc2ccccc12)c1ccc(Oc2ccccc2)cc1 [Compound 8g, (E)-N′-(Naphthalen-1-ylmethylene)-4-phenoxybenzohydrazide]
melting point: 193 to 195 °C | IC50 (InhA reductase enzyme): 4.23 µM | IC50 (Vero cell line): > 60 µg/mL

Clc1ccc(-c2nnc(-c3ccc(Oc4ccccc4)cc3)o2)cc1 [Compound 6e, 2-(4-Chlorophenyl)-5-(4-phenoxyphenyl)-1,3,4-oxadiazole]
MIC [1, 2]: 15.9 µg/mL (≈ 45.6 µM) | IC50 (InhA reductase enzyme): 64.5 µM

c1ccc(Oc2ccc(-c3nnco3)cc2)cc1 [Compound 4, 2-(4-Phenoxyphenyl)-1,3,4-oxadiazole]
MIC [1, 3]: 0.61 µg/mL (≈ 2.56 µM) | MIC [1, 2]: 0.61 to 1.69 µg/mL (≈ 2.56 to 7.09 µM) | IC50 (InhA reductase enzyme): 3.28 µM | IC50 (Vero cell line): > 60 µg/mL

Oc1cc(Cl)ccc1Oc1ccc(Cl)cc1Cl [Triclosan, triclosan, reference compound]
MIC [1, 3]: 10.00 µg/mL (≈ 34.5 µM) | MIC ([1]; Mycobacterium tuberculosis, H37RV): 10 µg/mL (≈ 34.5 µM)

c1ccc(Oc2ccc(-c3nnc(-c4ccco4)o3)cc2)cc1 [Compound 6j, 2-(Furan-2-yl)-5-(4-phenoxyphenyl)-1,3,4-oxadiazole]
MIC [1, 2]: 11.1 µg/mL (≈ 36.5 µM) | melting point: 129 to 132 °C | IC50 (InhA reductase enzyme): 51.4 µM

O=C(N/N=C/c1cccs1)c1ccc(Oc2ccccc2)cc1 [Compound 8k, (E)-4-Phenoxy-N′-(thiophen-2-ylmethylene)benzohydrazide]
melting point: 182 to 183 °C | IC50 (InhA reductase enzyme): 5.61 µM | IC50 (Vero cell line): > 60 µg/mL

O=C(N/N=C/c1ccc(OCc2ccccc2)cc1)c1ccc(Oc2ccccc2)cc1 [Compound 8f, (E)-N′-[4-(Benzyloxy)benzylidene]-4-phenoxybenzohydrazide]
MIC [1, 2]: 22.6 µg/mL (≈ 53.5 µM) | melting point: 228 to 231 °C | IC50 (InhA reductase enzyme): 29.9 µM

c1ccc(COc2ccc(-c3nnc(-c4ccc(Oc5ccccc5)cc4)o3)cc2)cc1 [Compound 6f, 2-(4-(Benzyloxy)phenyl)-5-(4-phenoxyphenyl)-1,3,4-oxadiazole]
MIC [1, 2]: 8.23 µg/mL (≈ 19.6 µM) | melting point: 226 to 229 °C | IC50 (InhA reductase enzyme): 41.2 µM

c1ccc(Oc2ccc(-c3nnc(-c4cccs4)o3)cc2)cc1 [Compound 6k, 2-(4-Phenoxyphenyl)-5-(thiophen-2-yl)-1,3,4-oxadiazole]
melting point: 139 to 141 °C | IC50 (InhA reductase enzyme): 78.6 µM | IC50 (Vero cell line): 68.6 ± 1.19 µg/mL (≈ 214 µM)

O=C(N/N=C/c1ccncc1)c1ccc(Oc2ccccc2)cc1 [Compound 8i, (E)-4-Phenoxy-N′-(pyridin-4-ylmethylene)benzohydrazide]
MIC [1, 2]: 6.82 µg/mL (≈ 21.5 µM) | melting point: 175 to 177 °C | IC50 (InhA reductase enzyme): 21.4 µM

COc1cc(-c2nnc(-c3ccc(Oc4ccccc4)cc3)o2)cc(OC)c1OC [Compound 6b, 2-(4-Phenoxyphenyl)-5-(3,4,5-trimethoxyphenyl)-1,3,4-oxadiazole]
MIC [1, 2]: 34.6 µg/mL (≈ 85.7 µM) | melting point: 250 to 253 °C | IC50 (InhA reductase enzyme): > 100 µM

NNC(=O)c1ccncc1 [INH, isoniazid, reference compound]
MIC [1, 3]: 0.20 µg/mL (≈ 1.46 µM) | MIC [1, 2]: 0.2 µg/mL (≈ 1.46 µM)

NNC(=O)c1ccc(Oc2ccccc2)cc1 [Compound 3, 4-Phenoxybenzohydrazide]
MIC [1, 3]: 0.86 µg/mL (≈ 3.77 µM) | MIC [1, 2]: 0.61 to 1.69 µg/mL (≈ 2.67 to 7.4 µM) | IC50 (InhA reductase enzyme): 3.43 µM | IC50 (Vero cell line): > 60 µg/mL

O=[N+]([O-])c1ccc(-c2nnc(-c3ccc(Oc4ccccc4)cc3)o2)cc1 [Compound 6d, 2-(4-Nitrophenyl)-5-(4-phenoxyphenyl)-1,3,4-oxadiazole]
MIC [1, 2]: 15.2 µg/mL (≈ 42.2 µM) | melting point: 226 to 228 °C | IC50 (InhA reductase enzyme): 68.4 µM

c1ccc(Oc2ccc(-c3nnc(-c4ccncc4)o3)cc2)cc1 [Compound 6i, 2-(4-Phenoxyphenyl)-5-(pyridin-4-yl)-1,3,4-oxadiazole]
melting point: 125 to 127 °C | IC50 (InhA reductase enzyme): 11.7 µM | IC50 (Vero cell line): > 60 µg/mL

O=C(N/N=C/c1ccco1)c1ccc(Oc2ccccc2)cc1 [Compound 8j, (E)-N′-(Furan-2-ylmethylene)-4-phenoxybenzohydrazide]
MIC [1, 2]: 6.35 µg/mL (≈ 20.7 µM) | IC50 (InhA reductase enzyme): 18.4 µM

c1ccc(Oc2ccc(-c3nnc(-c4ccccc4)o3)cc2)cc1 [Compound 6a, 2-(4-Phenoxyphenyl)-5-phenyl-1,3,4-oxadiazole]
MIC [1, 2]: 2.74 µg/mL (≈ 8.72 µM) | melting point: 233 to 235 °C | IC50 (InhA reductase enzyme): > 100 µM

O=C(N/N=C/c1ccc(Cl)cc1)c1ccc(Oc2ccccc2)cc1 [Compound 8e, (E)-N′-(4-Chlorobenzylidene)-4-phenoxybenzohydrazide]
MIC [1, 2]: 2.89 µg/mL (≈ 8.24 µM) | melting point: 184 to 186 °C | IC50 (InhA reductase enzyme): 7.46 µM

COc1cc(/C=N/NC(=O)c2ccc(Oc3ccccc3)cc2)cc(OC)c1OC [Compound 8b, (E)-4-Phenoxy-N′-(3,4,5-trimethoxybenzylidene)benzohydrazide]
MIC [1, 2]: 50.2 µg/mL (≈ 124 µM) | melting point: 191 to 192 °C | IC50 (InhA reductase enzyme): > 100 µM

c1ccc(Oc2ccc(-c3nnc(-c4cccnc4)o3)cc2)cc1 [Compound 6h, 2-(4-Phenoxyphenyl)-5-(pyridin-3-yl)-1,3,4-oxadiazole]
melting point: 143 to 144 °C | IC50 (InhA reductase enzyme): 5.08 µM | IC50 (Vero cell line): > 60 µg/mL

COc1ccc(/C=N/NC(=O)c2ccc(Oc3ccccc3)cc2)cc1 [Compound 8c, (E)-N′-(4-Methoxybenzylidene)-4-phenoxybenzohydrazide]
MIC [1, 2]: 20.7 µg/mL (≈ 59.7 µM) | melting point: 233 to 235 °C | IC50 (InhA reductase enzyme): 75.5 µM

O=C(N/N=C/c1cccnc1)c1ccc(Oc2ccccc2)cc1 [Compound 8h, (E)-4-Phenoxy-N′-(pyridin-3-ylmethylene)benzohydrazide]
MIC [1, 2]: 6.96 µg/mL (≈ 21.9 µM) | melting point: 149 to 151 °C | IC50 (InhA reductase enzyme): 26.5 µM

Source: article PMC7397076 (Molecules, 2020)
